In patent US5834259A, “Process and composition for preparing D-aspartic acid” (Monsanto Company, priority 1996, dated 1998):

Assays:
Format in all cases: biochemical, E. coli K12
[1] = biological target: T1, L-aspartate-α-decarboxylase (Escherichia coli, UniProt P0A790); experiment: Activity towards D/L-glutamate and D/L-alanine, D/L-aspartate as control (Example 8); conditions: racemate substrate, pH 7.0
T1 construct: expressed in transfected cells; host or cells: E. coli W3110 transformed with pIF309 = strain NS3291 (ATCC 98675), whole cells
Protocol: D/L-aspartate was run as a control.
Substrates were prepared by dissolving solid amino acid racemate in approximately 75 ml deionized H2 O and adjusting the pH to 7.0 with 10N NaOH. The volume was then brought to 100 ml with deionized H2 O. The cells used were stored frozen for about 1 month and then thawed and stored in a refrigerator for about 1 month prior to running the experiments.
The reaction was run the same as described in the prior Examples. Samples of supernatant fluid, approximately 0.20 ml, were removed over time, centrifuged and stored frozen before analysis by HPLC as described in the prior Examples.

[2] = biological target: T1, L-aspartate-α-decarboxylase; experiment: Temperature study, 50° C. (Example 9); conditions: for concentration in supernatant fluid / percent remaining: 1.0M, 100 g/l cells
Protocol: (§1) 133.1 g (1 mol) of D/L-aspartic acid was dissolved in deionized H2 O and the pH was adjusted to 7.0 with 10N NaOH, approximately 100 ml. Cells, freshly thawed from -80° C., were added to achieve a final concentration of 100 g/l. Three 2 L fermentors were each charged with 963 ml of substrate solution and 137 ml of cells and then heated to 37° C. and 45° C. while mixing at 300 rpm or heated to 50° C. while mixing at 450 rpm. Samples, approximately 1 ml, were removed over time and pH adjusted to 7.0 with either NaOH or HCl. After centrifugation to remove cells, the supernatant fluid was analyzed for both D- and L-aspartic acid.

[3] = biological target: T1, L-aspartate-α-decarboxylase; experiment: Re-treatment of Example 3 supernatant fluid with fresh cells (Example 4); conditions: 37° C.
Text: In all of the Examples herein, D- and L-aspartic acid isomers were quantified by HPLC using the following precolumn derivatization method. Aspartic acid was converted into diastereomers using ortho-phthalaldehyde and N-acetyl-L-cysteine. Separation of the diastereomers was achieved on a Supelcosil™ LC-18DB, 3μ, 150×4.6 mm column using a mobile phase of A: 20% methanol/80% triethylamine phosphate and B: methanol, and a step gradient as follows: […]
In this Example the supernatant fluid from Example 3 was re-treated with fresh cells. The reaction from Example 3, stopped at 68 hours, was centrifuged for 45 minutes in a GS-3 rotor at 7000 rpm. The supernatant fluid, 990 ml, was separated from the cells. 963 ml of this supernatant fluid was mixed with 137 ml fresh cells and placed in a 2 L fermentor. Bioconversion took place with mixing at 300 rpm, without automatic pH control and at a temperature of 37° C. Samples, approximately 1 ml, were removed over time and analyzed as in Example 3.

[4] = biological target: T1, L-aspartate-α-decarboxylase; experiment: Temperature study, 37° C. (Example 9); conditions: for concentration in supernatant fluid / percent remaining: 1.0M, 100 g/l cells
Protocol: as §1

Structure (SMILES): N[C@H](CC(=O)O)C(=O)O [D-Asp, D-aspartic acid]
- concentration in supernatant fluid ([1]; 0 hr): 29.890 mg/mL
- concentration in supernatant fluid ([1]; 3.5 hr): 29.850 mg/mL
- percent remaining ([1]; 3.5 hr): 99.866%
- concentration in supernatant fluid ([1]; 8.5 hr): 29.900 mg/mL
- percent remaining ([1]; 8.5 hr): 100.03%
- concentration in supernatant fluid ([1]; 24 hr): 29.740 mg/mL
- percent remaining ([1]; 24 hr): 99.498%
- concentration in supernatant fluid ([1]; 55 hr): 30.120 mg/mL
- percent remaining ([1]; 55 hr): 100.77%
- stability of the isomer [2]: stable
- concentration in supernatant fluid ([2]; 0.000 hr): 54.89 mg/mL
- concentration in supernatant fluid ([2]; 1.000 hr): 54.30 mg/mL
- percent remaining ([2]; 1.000 hr): 52.78%
- concentration in supernatant fluid ([2]; 3.000 hr): 58.01 mg/mL
- percent remaining ([2]; 3.000 hr): 40.61%
- concentration in supernatant fluid ([2]; 5.0000 hr): 58.16 mg/mL
- percent remaining ([2]; 5.0000 hr): 36.97%
- concentration in supernatant fluid ([2]; 7.000 hr): 58.51 mg/mL
- percent remaining ([2]; 7.000 hr): 35.69%
- concentration in supernatant fluid ([2]; 9.000 hr): 58.88 mg/mL
- percent remaining ([2]; 9.000 hr): 33.99%
- concentration in supernatant fluid ([2]; 13.50 hr): 59.62 mg/mL
- percent remaining ([2]; 13.50 hr): 34.19%
- concentration in supernatant fluid ([2]; 23.00 hr): 56.71 mg/mL
- percent remaining ([2]; 23.00 hr): 31.98%
- concentration in supernatant fluid ([2]; 25.00 hr): 59.85 mg/mL
- percent remaining ([2]; 25.00 hr): 31.86%
- concentration in supernatant fluid ([2]; 27.00 hr): 56.87 mg/mL
- percent remaining ([2]; 27.00 hr): 26.89%
- concentration in supernatant fluid ([2]; 32.00 hr): 57.30 mg/mL
- percent remaining ([2]; 32.00 hr): 25.85%
- concentration in supernatant fluid ([2]; 37.50 hr): 58.48 mg/mL
- percent remaining ([2]; 37.50 hr): 27.54%
- concentration in supernatant fluid ([2]; 47.00 hr): 57.93 mg/mL
- percent remaining ([2]; 47.00 hr): 25.58%
- concentration in supernatant fluid ([2]; 52.00 hr): 58.74 mg/mL
- percent remaining ([2]; 52.00 hr): 27.28%
- concentration in supernatant fluid ([2]; 57.00 hr): 65.56 mg/mL
- percent remaining ([2]; 57.00 hr): 32.42%
- concentration in supernatant fluid ([2]; 71.00 hr): 57.17 mg/mL
- percent remaining ([2]; 71.00 hr): 25.52%
- concentration in supernatant fluid ([2]; 77.00 hr): 57.85 mg/mL
- percent remaining ([2]; 77.00 hr): 25.86%
- concentration in supernatant fluid ([2]; 81.00 hr): 57.41 mg/mL
- percent remaining ([2]; 81.00 hr): 25.54%
- concentration in supernatant fluid ([2]; 99.75 hr): 59.36 mg/mL
- percent remaining ([2]; 99.75 hr): 26.14%
- concentration in supernatant fluid ([3]; 0.0000 hr): 21.450 mg/mL
- concentration in supernatant fluid ([3]; 2.7500 hr): 21.350 mg/mL
- percent remaining ([3]; 2.7500 hr): 99.534%
- concentration in supernatant fluid ([3]; 13.500 hr): 21.190 mg/mL
- percent remaining ([3]; 13.500 hr): 98.788%
- concentration in supernatant fluid ([3]; 15.000 hr): 20.770 mg/mL
- percent remaining ([3]; 15.000 hr): 96.830%
- concentration in supernatant fluid ([3]; 19.500 hr): 21.480 mg/mL
- percent remaining ([3]; 19.500 hr): 100.14%
- concentration in supernatant fluid ([3]; 23.500 hr): 20.880 mg/mL
- percent remaining ([3]; 23.500 hr): 97.343%
- concentration in supernatant fluid ([3]; 39.000 hr): 19.080 mg/mL
- percent remaining ([3]; 39.000 hr): 88.951%
- concentration in supernatant fluid ([3]; 47.000 hr): 17.280 mg/mL
- percent remaining ([3]; 47.000 hr): 80.559%
- concentration in supernatant fluid ([3]; 51.750 hr): 17.010 mg/mL
- percent remaining ([3]; 51.750 hr): 79.301%
- concentration in supernatant fluid ([3]; 68.500 hr): 14.900 mg/mL
- percent remaining ([3]; 68.500 hr): 69.464%
- stability of the isomer [4]: stable
- concentration in supernatant fluid ([4]; 0.0000 hr): 55.000 mg/mL
- concentration in supernatant fluid ([4]; 2.5000 hr): 54.310 mg/mL
- percent remaining ([4]; 2.5000 hr): 98.745%
- concentration in supernatant fluid ([4]; 4.0000 hr): 54.440 mg/mL
- percent remaining ([4]; 4.0000 hr): 98.982%
- concentration in supernatant fluid ([4]; 6.0000 hr): 54.470 mg/mL
- percent remaining ([4]; 6.0000 hr): 99.036%
- concentration in supernatant fluid ([4]; 8.0000 hr): 54.760 mg/mL
- percent remaining ([4]; 8.0000 hr): 99.564%
- concentration in supernatant fluid ([4]; 10.000 hr): 55.840 mg/mL
- percent remaining ([4]; 10.000 hr): 101.53%
- concentration in supernatant fluid ([4]; 12.000 hr): 56.760 mg/mL
- percent remaining ([4]; 12.000 hr): 103.20%
- concentration in supernatant fluid ([4]; 20.000 hr): 55.460 mg/mL
- percent remaining ([4]; 20.000 hr): 100.84%
- concentration in supernatant fluid ([4]; 24.000 hr): 55.390 mg/mL
- percent remaining ([4]; 24.000 hr): 100.71%
- concentration in supernatant fluid ([4]; 29.000 hr): 53.990 mg/mL
- percent remaining ([4]; 29.000 hr): 98.164%
- concentration in supernatant fluid ([4]; 34.000 hr): 53.440 mg/mL
- percent remaining ([4]; 34.000 hr): 97.164%
- concentration in supernatant fluid ([4]; 44.000 hr): 52.960 mg/mL
- percent remaining ([4]; 44.000 hr): 96.291%
- concentration in supernatant fluid ([4]; 48.000 hr): 52.940 mg/mL
- percent remaining ([4]; 48.000 hr): 96.255%
- concentration in supernatant fluid ([4]; 68.000 hr): 49.940 mg/mL
- percent remaining ([4]; 68.000 hr): 90.800%
- concentration in supernatant fluid ([4]; 92.000 hr): 50.670 mg/mL
- percent remaining ([4]; 92.000 hr): 92.127%
